Results as given in patent US20250115669A1, “FGFR1/KLB Targeting Agonistic Antigen-Binding Proteins and Conjugates Thereof with GLP-1R Agonistic Peptides” (SANOFI, priority 2020, published 2025).
Peptide text beside a SMILES is read from it.

Experiments:
Assay type in all cases: cell-based
[1] = target: T1, FGFR1c and co-receptor beta-Klotho (KLB) (Homo sapiens, UniProt P11362+Q86Z14); experiment: Luciferase reporter gene assay (iLite FGF21 Assay Ready Cells), FGF21-like signaling; details: monovalent Fab versus bivalent antibody
T1 construct: host or cells: iLite FGF21 Assay Ready Cells (HEK293)
T1 sequence (Q86Z14 53-1044 limits assumed): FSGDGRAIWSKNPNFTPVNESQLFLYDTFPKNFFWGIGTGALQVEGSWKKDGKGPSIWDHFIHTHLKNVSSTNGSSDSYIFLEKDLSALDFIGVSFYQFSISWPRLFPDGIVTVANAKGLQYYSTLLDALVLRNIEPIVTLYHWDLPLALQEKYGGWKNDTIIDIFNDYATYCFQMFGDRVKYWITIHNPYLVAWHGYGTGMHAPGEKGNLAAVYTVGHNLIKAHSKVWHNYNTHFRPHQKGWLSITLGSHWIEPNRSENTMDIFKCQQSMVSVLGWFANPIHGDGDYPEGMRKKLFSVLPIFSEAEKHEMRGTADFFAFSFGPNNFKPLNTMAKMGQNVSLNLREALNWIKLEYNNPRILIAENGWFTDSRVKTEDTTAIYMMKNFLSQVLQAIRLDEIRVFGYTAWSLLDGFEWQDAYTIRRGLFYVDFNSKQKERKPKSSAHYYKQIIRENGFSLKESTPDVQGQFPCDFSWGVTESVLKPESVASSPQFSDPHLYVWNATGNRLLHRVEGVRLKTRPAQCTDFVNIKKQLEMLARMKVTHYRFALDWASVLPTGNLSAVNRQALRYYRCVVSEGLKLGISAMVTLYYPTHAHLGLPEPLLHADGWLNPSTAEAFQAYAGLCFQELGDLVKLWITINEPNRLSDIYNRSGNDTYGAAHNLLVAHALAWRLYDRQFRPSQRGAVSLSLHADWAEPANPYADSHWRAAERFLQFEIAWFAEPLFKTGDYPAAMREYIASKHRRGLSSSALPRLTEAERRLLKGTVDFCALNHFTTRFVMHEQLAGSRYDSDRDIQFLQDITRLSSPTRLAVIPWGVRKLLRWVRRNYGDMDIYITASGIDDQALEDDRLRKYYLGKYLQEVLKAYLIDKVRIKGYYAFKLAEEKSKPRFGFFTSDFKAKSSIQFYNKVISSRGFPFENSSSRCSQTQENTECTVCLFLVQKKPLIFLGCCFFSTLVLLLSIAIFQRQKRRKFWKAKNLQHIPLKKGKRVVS
T1 sequence (P11362 22-820 isoform P11362-2 limits assumed): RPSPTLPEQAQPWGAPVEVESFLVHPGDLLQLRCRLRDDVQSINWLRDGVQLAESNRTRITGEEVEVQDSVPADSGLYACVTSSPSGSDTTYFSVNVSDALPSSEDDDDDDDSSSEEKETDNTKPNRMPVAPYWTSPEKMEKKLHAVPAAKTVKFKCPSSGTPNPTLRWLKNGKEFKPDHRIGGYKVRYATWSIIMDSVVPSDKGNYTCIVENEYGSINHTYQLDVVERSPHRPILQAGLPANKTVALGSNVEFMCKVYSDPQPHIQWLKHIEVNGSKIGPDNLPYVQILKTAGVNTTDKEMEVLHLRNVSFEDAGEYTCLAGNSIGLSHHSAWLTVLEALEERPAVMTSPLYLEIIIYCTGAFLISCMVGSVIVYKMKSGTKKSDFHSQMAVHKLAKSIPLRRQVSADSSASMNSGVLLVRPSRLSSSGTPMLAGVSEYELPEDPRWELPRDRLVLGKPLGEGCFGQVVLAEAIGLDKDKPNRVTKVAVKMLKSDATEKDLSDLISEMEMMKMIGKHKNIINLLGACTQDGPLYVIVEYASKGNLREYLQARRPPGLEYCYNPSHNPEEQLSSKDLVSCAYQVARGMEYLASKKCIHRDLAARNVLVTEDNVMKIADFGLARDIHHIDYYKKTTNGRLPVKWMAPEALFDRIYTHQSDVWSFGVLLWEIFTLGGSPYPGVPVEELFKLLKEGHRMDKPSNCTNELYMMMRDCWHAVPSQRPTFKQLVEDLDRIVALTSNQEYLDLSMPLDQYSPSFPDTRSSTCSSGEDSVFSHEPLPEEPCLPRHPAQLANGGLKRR

human GIP receptor = target: T2, human GIP receptor (Homo sapiens, UniProt P48546); experiment: HTRF cAMP assay in HEK-293 cells expressing human GIP receptor; details: HEK-293 cells; read-out: HTRF cAMP EC50 Human GIPR
T2 construct: expressed in transfected cells; host or cells: PSC-HEK-293
T2 sequence (P48546 22-466): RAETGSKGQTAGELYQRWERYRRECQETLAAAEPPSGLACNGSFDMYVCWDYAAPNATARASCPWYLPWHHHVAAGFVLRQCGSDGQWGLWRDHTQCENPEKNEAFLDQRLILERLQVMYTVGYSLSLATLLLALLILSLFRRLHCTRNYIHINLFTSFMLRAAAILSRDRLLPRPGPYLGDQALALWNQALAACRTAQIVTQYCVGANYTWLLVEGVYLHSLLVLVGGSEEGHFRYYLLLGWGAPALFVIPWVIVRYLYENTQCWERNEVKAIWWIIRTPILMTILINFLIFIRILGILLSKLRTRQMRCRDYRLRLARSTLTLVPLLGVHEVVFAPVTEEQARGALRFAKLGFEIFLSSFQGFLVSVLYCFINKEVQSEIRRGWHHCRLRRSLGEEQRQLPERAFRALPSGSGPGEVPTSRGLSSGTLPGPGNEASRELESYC

[2] = target: T3, human glucagon (GCG) receptor (Homo sapiens, UniProt P47871); experiment: HTRF cAMP assay in HEK-293 cells expressing human glucagon receptor; details: HEK-293 cells; read-out: HTRF cAMP EC50 Human GCGR
T3 construct: expressed in transfected cells; host or cells: PSC-HEK-293
T3 sequence (P47871 26-477): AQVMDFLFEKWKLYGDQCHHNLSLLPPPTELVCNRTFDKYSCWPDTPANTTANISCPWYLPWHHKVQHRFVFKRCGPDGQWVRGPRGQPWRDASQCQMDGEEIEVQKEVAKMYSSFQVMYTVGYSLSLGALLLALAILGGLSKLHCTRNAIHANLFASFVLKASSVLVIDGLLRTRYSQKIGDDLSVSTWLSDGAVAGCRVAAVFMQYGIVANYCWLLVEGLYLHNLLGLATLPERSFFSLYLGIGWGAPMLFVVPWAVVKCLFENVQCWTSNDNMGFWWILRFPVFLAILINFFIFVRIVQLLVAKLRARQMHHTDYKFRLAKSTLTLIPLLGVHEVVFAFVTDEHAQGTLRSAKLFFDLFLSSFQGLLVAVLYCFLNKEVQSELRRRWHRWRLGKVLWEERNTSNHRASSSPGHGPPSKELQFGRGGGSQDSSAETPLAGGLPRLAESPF

human GLP-1 receptor = target: T4, human GLP-1 receptor (Homo sapiens, UniProt P43220); experiment: HTRF cAMP assay in HEK-293 cells expressing human GLP-1 receptor; details: HEK-293 cells; read-out: HTRF cAMP EC50 Human GLP-1R
T4 construct: expressed in transfected cells; host or cells: PSC-HEK-293
T4 sequence (P43220 24-463): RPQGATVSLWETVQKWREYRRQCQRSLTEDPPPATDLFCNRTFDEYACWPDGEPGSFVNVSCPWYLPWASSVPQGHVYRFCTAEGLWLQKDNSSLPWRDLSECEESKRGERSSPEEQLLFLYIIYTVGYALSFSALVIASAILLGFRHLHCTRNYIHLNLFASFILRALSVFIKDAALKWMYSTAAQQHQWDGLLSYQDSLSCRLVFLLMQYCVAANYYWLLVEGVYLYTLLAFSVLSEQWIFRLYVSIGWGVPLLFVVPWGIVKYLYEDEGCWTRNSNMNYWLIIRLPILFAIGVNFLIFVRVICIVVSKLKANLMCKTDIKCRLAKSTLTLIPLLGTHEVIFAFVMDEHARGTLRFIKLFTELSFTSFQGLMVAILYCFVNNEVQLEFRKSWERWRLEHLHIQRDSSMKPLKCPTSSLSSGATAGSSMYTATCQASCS

Row | FGF21-like activity in Luciferase gene reporter assay (in words) [1] | EC50 (human GIP receptor) [nM] | EC50 [2] [nM] | EC50 (human GLP-1 receptor) [nM] | Compound
1 | inactive |  |  |  | 16H7-Fab: monovalent Fab fragment (antigen-binding fragment) of 16H7 [Ab 16H7-Fab, reference compound]
2 |  | > 10 | > 10 | 0.0325 | CC[C@H](C)[C@H](NC(=O)[C@H](Cc1ccccc1)NC(=O)[C@H](CC(C)C)NC(=O)[C@H](CCC(N)=O)NC(=O)[C@@H](NC(=O)[C@H](C)NC(=O)[C@H](CCC(=O)O)NC(=O)[C@H](CCC(=O)O)NC(=O)[C@H](CCC(=O)O)NC(=O)[C@H](CC(C)C)NC(=O)[C@H](CCC(N)=O)NC(=O)[C@H](CCCCN)NC(=O)[C@H](CO)NC(=O)[C@H](CC(C)C)NC(=O)[C@H](CC(=O)O)NC(=O)[C@H](CO)NC(=O)[C@@H](NC(=O)[C@H](Cc1ccccc1)NC(=O)[C@@H](NC(=O)CNC(=O)[C@H](CCC(=O)O)NC(=O)CNC(=O)[C@H](Cc1c[nH]cn1)NC(=O)CN)[C@@H](C)O)[C@@H](C)O)C(C)C)C(=O)N[C@@H](C)C(=O)N[C@@H](Cc1c[nH]c2ccccc12)C(=O)N[C@@H](CC(C)C)C(=O)N[C@H](C(=O)N[C@@H](CCCCN)C(N)=O)C(C)C [Ab P041] (H-GHGEGTFTSDLSKQLEEEAVQLFIAWLVK-NH2; N-terminus assumed)
